The numbers were not newly measured in PubChem BioAssay AID1259409 (Chemical Carcinogenesis Research Information System (CCRIS), 2018), which cites them from elsewhere.

The test system of the series is rodent chemically induced tumor inhibition, incidence and multiplicity. In words: CCRIS tumor inhibitor studies. The following applies: Carcinogen: L-AZASERINE, 115-02-6, Route [Inhibitor]: ORAL, Species: RAT, Dose [Carcinogen]: 10 MG/KG BW 1/WK FOR 15 WK, Promoter: NONE USED.

Take `CCC(=O)Oc1ccc(NC(=O)\C=C(C)/C=C/C=C(C)/C=C/C2=C(C)CCCC2(C)C)cc1`: the “tumour outcome (control, treated, inhibition, significance)” value by setting is: (Dose [Inhibitor]: 1 MMOL/KG DIET DAILY FOR 84 D FOLLOWED BY 0.5 MMOL/KG DIET FOR 276 D STARTING 1 WK AFTER COMPLETION OF CARCINOGEN TREATM, Strain/Sex: WISTAR-LEWIS/FEMALE, Target Tissue: Type of Lesion: PANCREAS: ADENOMA) 50%, 17%, 66%, not significant; (Dose [Inhibitor]: 1 MMOL/KG DIET DAILY FOR 84 D FOLLOWED BY 0.5 MMOL/KG DIET FOR 276 D STARTING 1 WK AFTER COMPLETION OF CARCINOGEN TREATM, Strain/Sex: WISTAR-LEWIS/FEMALE, Target Tissue: Type of Lesion: PANCREAS: CARCINOMA IN SITU) 8%, 21%, -163%, not calculated; (Dose [Inhibitor]: 1 MMOL/KG DIET DAILY FOR 84 D FOLLOWED BY 0.5 MMOL/KG DIET FOR 276 D STARTING 1 WK AFTER COMPLETION OF CARCINOGEN TREATM, Strain/Sex: WISTAR-LEWIS/FEMALE, Target Tissue: Type of Lesion: PANCREAS: CARCINOMA) 13%, 0%, 100%, not significant; (Dose [Inhibitor]: 1 MMOL/KG DIET DAILY FOR 84 D FOLLOWED BY 0.5 MMOL/KG DIET FOR 276 D STARTING 1 WK AFTER COMPLETION OF CARCINOGEN TREATM, Strain/Sex: WISTAR-LEWIS/FEMALE, Target Tissue: Type of Lesion: PANCREAS: NEOPLASM) 71%, 38%, 46%, p<0.05; (Dose [Inhibitor]: 1 MMOL/KG DIET DAILY FOR 84 D FOLLOWED BY 0.5 MMOL/KG DIET FOR 276 D STARTING 1 WK AFTER COMPLETION OF CARCINOGEN TREATM, Strain/Sex: WISTAR-LEWIS/MALE, Target Tissue: Type of Lesion: PANCREAS: ADENOMA) 25%, 29%, -16%, not significant; (Dose [Inhibitor]: 1 MMOL/KG DIET DAILY FOR 84 D FOLLOWED BY 0.5 MMOL/KG DIET FOR 276 D STARTING 1 WK AFTER COMPLETION OF CARCINOGEN TREATM, Strain/Sex: WISTAR-LEWIS/MALE, Target Tissue: Type of Lesion: PANCREAS: CARCINOMA IN SITU) 29%, 42%, -45%, not significant. For the same molecule, the “tumour outcome (control, treated, inhibition, significance)” value (Dose [Inhibitor]: 1 MMOL/KG DIET DAILY FOR 84 D FOLLOWED BY 0.5 MMOL/KG DIET FOR 276 D STARTING 1 WK AFTER COMPLETION OF CARCINOGEN TREATM, Strain/Sex: WISTAR-LEWIS/MALE, Target Tissue: Type of Lesion: PANCREAS: CARCINOMA) is 46%, 21%, 54%, p 0.06; the “tumour outcome (control, treated, inhibition, significance)” value (Dose [Inhibitor]: 1 MMOL/KG DIET DAILY FOR 84 D FOLLOWED BY 0.5 MMOL/KG DIET FOR 276 D STARTING 1 WK AFTER COMPLETION OF CARCINOGEN TREATM, Strain/Sex: WISTAR-LEWIS/MALE, Target Tissue: Type of Lesion: PANCREAS: NEOPLASM) is 100%, 92%, 8%, not significant; the “tumour outcome (control, treated, inhibition, significance)” value (Dose [Inhibitor]: 2 MMOL/KG DIET FOR 44 D, 1.5 MMOL FOR 26 D, 1 MMOL FOR 56 D AND 0.75 MMOL FOR 192 D STARTING 1 WK AFTER COMPLETION OF CA, Strain/Sex: WISTAR-LEWIS/FEMALE, Target Tissue: Type of Lesion: PANCREAS: ADENOMA) is 50%, 29%, 42%, not significant; the “tumour outcome (control, treated, inhibition, significance)” value (Dose [Inhibitor]: 2 MMOL/KG DIET FOR 44 D, 1.5 MMOL FOR 26 D, 1 MMOL FOR 56 D AND 0.75 MMOL FOR 192 D STARTING 1 WK AFTER COMPLETION OF CA, Strain/Sex: WISTAR-LEWIS/FEMALE, Target Tissue: Type of Lesion: PANCREAS: CARCINOMA IN SITU) was 8%, 4%, 50%, not significant; the “tumour outcome (control, treated, inhibition, significance)” value (Dose [Inhibitor]: 2 MMOL/KG DIET FOR 44 D, 1.5 MMOL FOR 26 D, 1 MMOL FOR 56 D AND 0.75 MMOL FOR 192 D STARTING 1 WK AFTER COMPLETION OF CA, Strain/Sex: WISTAR-LEWIS/FEMALE, Target Tissue: Type of Lesion: PANCREAS: CARCINOMA) was 13%, 4%, 70%, not significant; the “tumour outcome (control, treated, inhibition, significance)” value (Dose [Inhibitor]: 2 MMOL/KG DIET FOR 44 D, 1.5 MMOL FOR 26 D, 1 MMOL FOR 56 D AND 0.75 MMOL FOR 192 D STARTING 1 WK AFTER COMPLETION OF CA, Strain/Sex: WISTAR-LEWIS/FEMALE, Target Tissue: Type of Lesion: PANCREAS: NEOPLASM) is 71%, 38%, 46%, p<0.05. Moreover, the “tumour outcome (control, treated, inhibition, significance)” value is, setting by setting: (Dose [Inhibitor]: 2 MMOL/KG DIET FOR 44 D, 1.5 MMOL FOR 26 D, 1 MMOL FOR 56 D AND 0.75 MMOL FOR 192 D STARTING 1 WK AFTER COMPLETION OF CA, Strain/Sex: WISTAR-LEWIS/MALE, Target Tissue: Type of Lesion: PANCREAS: ADENOMA) 25%, 22%, 12%, not significant; (Dose [Inhibitor]: 2 MMOL/KG DIET FOR 44 D, 1.5 MMOL FOR 26 D, 1 MMOL FOR 56 D AND 0.75 MMOL FOR 192 D STARTING 1 WK AFTER COMPLETION OF CA, Strain/Sex: WISTAR-LEWIS/MALE, Target Tissue: Type of Lesion: PANCREAS: CARCINOMA IN SITU) 29%, 43%, -48%, not significant; (Dose [Inhibitor]: 2 MMOL/KG DIET FOR 44 D, 1.5 MMOL FOR 26 D, 1 MMOL FOR 56 D AND 0.75 MMOL FOR 192 D STARTING 1 WK AFTER COMPLETION OF CA, Strain/Sex: WISTAR-LEWIS/MALE, Target Tissue: Type of Lesion: PANCREAS: CARCINOMA) 46%, 13%, 72%, p<0.05; (Dose [Inhibitor]: 2 MMOL/KG DIET FOR 44 D, 1.5 MMOL FOR 26 D, 1 MMOL FOR 56 D AND 0.75 MMOL FOR 192 D STARTING 1 WK AFTER COMPLETION OF CA, Strain/Sex: WISTAR-LEWIS/MALE, Target Tissue: Type of Lesion: PANCREAS: NEOPLASM) 100%, 78%, 22%, not significant.
